Measurements reported in patent US7709606B2, “Interacting polypeptide comprising a heptapeptide pattern and a cellular penetration domain” (Ecole Normale Superieure de Lyon, priority 2003, dated 2010).
Where two headings read alike, the source gives them in different places.

Key:
HIV-1-LA1 = assay: antiviral test in PHA-P activated PBMC, RT activity; type: cell-based; details: for anti-HIV activity, replication of HIV-1-LA1: PBMC activated by PHA-P, 7th day, in words; for Percentage inhibition, Mean: HIV-1 LA1, day 7; for reduction of HIV-1 replication: PBMC activated with PHA-P
Experimental: (§1) These viruses were amplified in vitro with umbilical blood mononuclear cells (UBMC) activated with PHA-P. The cell-free supernatant was centrifuged at […] for 10 minutes to eliminate soluble factors, and the residue was re-suspended in cell culture medium. Virus stocks were titrated using PBMC cells activated with PHA-P and 50% tissue culture infectious doses (TCID50) were calculated using Kärber's formula.
PBMC cells were pre-treated for 30 minutes by 5 concentrations of each molecule and infected with 75 TCID50 of the HIV-1-LA1 strain. AZT (1.6, 8, 40, 200 and 1000 nM) and indinavir (1.6, 8, 40, 200 and 1000 nM) were used as the control. […] The molecules were maintained throughout culture, and the cellular supernatant was harvested 7 days post infection and stored at −20° C. to measure viral replication by reverse transcriptase activity (RT) assay.
(§2) HIV replication was analyzed by assaying the RT activity in the supernatants from cell cultures using the RetroSys RT kit (Innovagen). The experiments were carried out 3 times and the results are expressed as the mean of the RT activity±the standard deviation (SD).
In a last step, it was examined whether SHPs were actually capable of inhibiting HIV-1 replication. This was carried out in PBMCs activated by PHA-P and in MDMs. […] The effects of different SHPs was thus tested at this time. AZT and indinavir were used as controls.

HIV-1/Ba-L = assay: antiviral test in monocyte-derived macrophages (MDM), RT activity; type: cell-based; details: for EC50: Human immunodeficiency virus 1, BAL, Macrophage, read-out: ED50 (the source's name); for EC50 / Percentage inhibition, Mean / ED70 / ED90: MDMs, HIV-1/Ba-L; for anti-HIV activity, HIV-1/Ba-L replication: in words
Experimental: as §1
The MDM cells were pre-treated for 30 minutes in 6 concentrations of different molecules and infected with 30000 TCID50 of the HIV-1/Ba-L strain. AZT (0.8, 4, 20, 100 and 500 nM) and indinavir (0.8, 4, 20, 100 and 500 nM) were used as the control. […] The molecules were maintained for 7 days post infection, and the cellular supernatant was harvested 7, 14 and 21 days post infection and stored at −20° C. to measure viral replication by reverse transcriptase activity (RT) assay.
as §2

Jurkat cells = assay: intracellular entry, immunofluorescence in Jurkat cells; type: cell-based; details: 2 μM for one hour, analyzed 24 h later
Experimental: Light transmission and fluorescence images are shown for representative cells.
The immunofluorescence tests were carried out with a primary anti-FLAG antibody in a dilution of 1:500 incubated for 2 hours and a secondary antibody coupled to the Alexa Fluor 488 fluorophore (Molecular Probes) diluted 1:1000, incubated for one hour.
To confirm that SHPs do indeed enter the cell, immunofluorescence analyses were also carried out. Jurkat cells were incubated with 1 μM of SHP for 4 hours and after washing twice, the cells were cultured for 24 hours.

[1] = tested on: PBMCs (resting and activated lymphocytes); assay: penetration into PBMCs and stability in medium, anti-FLAG immunoblot; type: cell-based, human
Experimental: Mononuclear cells were prepared from peripheral blood, either directly (A) or after activation with PHA (phytohemagglutinin) and IL-2 (interleukin 2) (B), then incubated with 2 μM of SHPR-190. At the times indicated after addition of the interacting peptide, an aliquot of supernatant was analyzed by immunoblot using antibodies against FLAG (A, lines 1 to 4; B, lines 1 to 3). The cells were collected and lysed in RIPA buffer. The extract obtained was analyzed by immunoblot as described for the supernatant (A, lines 5 and 6; B, line 4). In portion A, the exposure times were different between lines 5 and 6 (30 s) and lines 1 to 4 (5 s).
To evaluate the capacity of SHPs to penetrate into cells, PBMCs were cultivated in medium supplemented with 2 μM of SHPR-190. At different times, an aliquot of supernatant was removed and the cells were collected. After washing several times, the cells were lysed in RIPA buffer and the supernatant as well as that which was extracted was analyzed by immunoblot using an antibody directed against the FLAG eiptope, which is present at the N-terminal end of SHP produced in bacteria.

Rev/RRE association = Rev/RRE association (Human immunodeficiency virus type 1 group M subtype B, UniProt P04618); details: Rev produced in bacteria, RRE RNA probe
Experimental: To this end, gel retard experiments were carried out with a RNA molecule corresponding to the RRE element as the probe. The Rev protein produced in bacteria binds to this RNA and induces a non denaturing polyacrylamide gel migration retardation.

Rev = Rev (Human immunodeficiency virus type 1 group M subtype B, UniProt P04618); details: HeLa cells
Experimental: This type of indicative construct allowed an evaluation of the effect of Rev, which by causing transport towards the cytoplasm of the non spliced RNA, allowed expression of the CAT enzyme.
The CAT activity was measured using the CAT ELISA kit (Roche).
The SHPR activity was evaluated using the reporter construct pDM128 which included the coding sequence CAT and an RRE motif in an intron. Expression of Rev stimulated expression of CAT allowing an unspliced messenger to be exported to the cytoplasm.
These various mutants were tested using a transitory expression system consisting of transfecting HeLa cells of the reporter plasmid having the CAT sequence associated with the RRE in the intronic position with expression vectors for the Rev protein and the SHPR protein. […] The separation between the two values was less than 20%.
These vectors were transfected with the reporter plasmid pDM128 and the expression vector Rev as described in the above sections (and in Roisin et al, JBC (2004) 279: 9208). The quantity of CAT protein is expressed as a % of that corresponding to transfection of parental SHPR. A value of more than 100 thus indicates a negative effect on the inhibiting power of SHPR and a lower value indicates an increase in this inhibiting property.

## CC(C)(C)NC(=O)[C@@H]1CN(Cc2cccnc2)CCN1C[C@@H](O)C[C@@H](Cc1ccccc1)C(=O)N[C@H]1c2ccccc2C[C@H]1O [IDV, indinavir, reference compound]
HIV-1-LA1; Human immunodeficiency virus 1, PBMC, PBMCs, HIV-1-LA1, 7th day, read-out: ED50 (the source's name)
  EC50: 0.014 µM
HIV-1-LA1
  anti-HIV activity, replication of HIV-1-LA1: effectively inhibited
HIV-1-LA1; PBMCs, HIV-1-LA1, 7th day
  ED70: 0.018 µM
  ED90: 0.0255 µM
HIV-1-LA1; PBMCs, Dose 1.6 (nM)
  Percentage inhibition, Mean: 0%
HIV-1-LA1; PBMCs, Dose 8 (nM)
  Percentage inhibition, Mean: 67%
HIV-1-LA1; PBMCs, Dose 40 (nM)
  Percentage inhibition, Mean: 92%
HIV-1-LA1; PBMCs, Dose 200 (nM)
  Percentage inhibition, Mean: 100%
HIV-1-LA1; PBMCs, Dose 1000 (nM)
  Percentage inhibition, Mean: 100%
HIV-1/Ba-L; 336 h, Day 14
  EC50: 0.022 µM
HIV-1/Ba-L; 504 h, Day 21
  EC50: 0.022 µM
HIV-1/Ba-L; MDM
  anti-HIV activity, HIV-1/Ba-L replication: reduced in a dose-dependent manner
HIV-1/Ba-L; Day 7, dose 0.8 (nM)
  Percentage inhibition, Mean: 59%
HIV-1/Ba-L; Day 7, dose 4 (nM)
  Percentage inhibition, Mean: 69%
HIV-1/Ba-L; Day 7, dose 20 (nM)
  Percentage inhibition, Mean: 90%
HIV-1/Ba-L; Day 7, dose 100 (nM)
  Percentage inhibition, Mean: 93%
HIV-1/Ba-L; Day 7, dose 500 (nM)
  Percentage inhibition, Mean: 97%
HIV-1/Ba-L; Day 14
  ED70: 0.0265 µM
  ED90: 0.0345 µM
HIV-1/Ba-L; Day 14, dose 0.8 (nM)
  Percentage inhibition, Mean: 0%
HIV-1/Ba-L; Day 14, dose 4 (nM)
  Percentage inhibition, Mean: 0%
HIV-1/Ba-L; Day 14, dose 20 (nM)
  Percentage inhibition, Mean: 68%
HIV-1/Ba-L; Day 14, dose 100 (nM)
  Percentage inhibition, Mean: 100%
HIV-1/Ba-L; Day 14, dose 500 (nM)
  Percentage inhibition, Mean: 100%
HIV-1/Ba-L; Day 21
  ED70: 0.032 µM
  ED90: 0.062 µM
HIV-1/Ba-L; Day 21, dose 0.8 (nM)
  Percentage inhibition, Mean: 0%
HIV-1/Ba-L; Day 21, dose 4 (nM)
  Percentage inhibition, Mean: 0%
HIV-1/Ba-L; Day 21, dose 20 (nM)
  Percentage inhibition, Mean: 47%
HIV-1/Ba-L; Day 21, dose 100 (nM)
  Percentage inhibition, Mean: 96%
HIV-1/Ba-L; Day 21, dose 500 (nM)
  Percentage inhibition, Mean: 100%

## Cc1cn([C@H]2C[C@H](N=[N+]=[N-])[C@@H](CO)O2)c(=O)[nH]c1=O [AZT, reference compound]
HIV-1-LA1
  anti-HIV activity, replication of HIV-1-LA1: effectively inhibited
HIV-1-LA1; PBMCs, HIV-1-LA1, 7th day
  ED70: 0.0135 µM
  ED90: 0.019 µM
HIV-1-LA1; PBMCs, Dose 1.6 (nM)
  Percentage inhibition, Mean: 0%
HIV-1-LA1; PBMCs, Dose 8 (nM)
  Percentage inhibition, Mean: 81%
HIV-1-LA1; PBMCs, Dose 40 (nM)
  Percentage inhibition, Mean: 98%
HIV-1-LA1; PBMCs, Dose 200 (nM)
  Percentage inhibition, Mean: 98%
HIV-1-LA1; PBMCs, Dose 1000 (nM)
  Percentage inhibition, Mean: 100%
HIV-1/Ba-L; MDM
  anti-HIV activity, HIV-1/Ba-L replication: reduced in a dose-dependent manner
HIV-1/Ba-L; Day 7, dose 0.8 (nM)
  Percentage inhibition, Mean: 76%
HIV-1/Ba-L; Day 7, dose 4 (nM)
  Percentage inhibition, Mean: 72%
HIV-1/Ba-L; Day 7, dose 20 (nM)
  Percentage inhibition, Mean: 87%
HIV-1/Ba-L; Day 7, dose 100 (nM)
  Percentage inhibition, Mean: 88%
HIV-1/Ba-L; Day 7, dose 500 (nM)
  Percentage inhibition, Mean: 93%
HIV-1/Ba-L; Day 14
  ED70: 0.009 µM
  ED90: 0.064 µM
HIV-1/Ba-L; Day 14, dose 0.8 (nM)
  Percentage inhibition, Mean: 0%
HIV-1/Ba-L; Day 14, dose 4 (nM)
  Percentage inhibition, Mean: 55%
HIV-1/Ba-L; Day 14, dose 20 (nM)
  Percentage inhibition, Mean: 82%
HIV-1/Ba-L; Day 14, dose 100 (nM)
  Percentage inhibition, Mean: 92%
HIV-1/Ba-L; Day 14, dose 500 (nM)
  Percentage inhibition, Mean: 100%
HIV-1/Ba-L; Day 21, dose 0.8 (nM)
  Percentage inhibition, Mean: 0%
HIV-1/Ba-L; Day 21, dose 4 (nM)
  Percentage inhibition, Mean: 0%
HIV-1/Ba-L; Day 21, dose 20 (nM)
  Percentage inhibition, Mean: 68%
HIV-1/Ba-L; Day 21, dose 100 (nM)
  Percentage inhibition, Mean: 81%
HIV-1/Ba-L; Day 21, dose 500 (nM)
  Percentage inhibition, Mean: 100%

B1: SHPR-190: SUMO-1-heptapeptide-Tat PTD protein against Rev; heptapeptide Asn Trp Leu Cys Cys Leu Asn (SEQ ID NO: 3) (protein)
chain: MSDQEAKPSTEDLGDKKEGEYIKLKVIGQDSSEIHFKVKMTTHLKKLKESYCQRQGVPMNSLRFLFEGQRIADNHTPKELGMEEEDVIEVYQEQTARPPNPKKEIELGGGGSNWLCCLNPGRKKRRQRRRG
HIV-1-LA1
  anti-HIV activity, replication of HIV-1-LA1: reduced replication
HIV-1-LA1; 1 μM
  reduction of HIV-1 replication: 80±7%
HIV-1-LA1; 2 μM
  reduction of HIV-1 replication: 100%
HIV-1-LA1; PBMCs, HIV-1-LA1, 7th day
  ED70: 0.72 µM
  ED90: 0.927 µM
HIV-1-LA1; PBMCs, Dose 31 (nM)
  Percentage inhibition, Mean: 0%
HIV-1-LA1; PBMCs, Dose 62.5 (nM)
  Percentage inhibition, Mean: 0%
HIV-1-LA1; PBMCs, Dose 125 (nM)
  Percentage inhibition, Mean: 0%
HIV-1-LA1; PBMCs, Dose 250 (nM)
  Percentage inhibition, Mean: 0%
HIV-1-LA1; PBMCs, Dose 500 (nM)
  Percentage inhibition, Mean: 38%
HIV-1-LA1; PBMCs, Dose 1000 (nM)
  Percentage inhibition, Mean: 80%
HIV-1-LA1; PBMCs, Dose 2000 (nM)
  Percentage inhibition, Mean: 100%
Jurkat cells
  immunofluorescence with antibody against FLAG: diffuse fluorescence
[1]; 2 μM in PBMC culture supernatant
  stability in the culture medium: stable in the culture medium
[1]; 2 μM, resting and activated lymphocytes
  presence inside the cell: a fraction of the protein was present inside the cell
[1]; external concentration of 2 μM, lymphocyte assumed a sphere 12μ in diameter
  intracellular concentration: 15 µM
Rev/RRE association
  effect on Rev/RRE association (gel retardation): did not inhibit this association
HIV-1/Ba-L; MDM, 2 μM on day 14
  inhibition of HIV replication: 92±2%
HIV-1/Ba-L; MDM
  anti-HIV activity, HIV-1/Ba-L replication: dose-dependent
HIV-1/Ba-L; Day 7, dose 62.5 (nM)
  Percentage inhibition, Mean: 0%
HIV-1/Ba-L; Day 7, dose 125 (nM)
  Percentage inhibition, Mean: 34%
HIV-1/Ba-L; Day 7, dose 250 (nM)
  Percentage inhibition, Mean: 50%
HIV-1/Ba-L; Day 7, dose 500 (nM)
  Percentage inhibition, Mean: 89%
HIV-1/Ba-L; Day 7, dose 1000 (nM)
  Percentage inhibition, Mean: 94%
HIV-1/Ba-L; Day 7, dose 2000 (nM)
  Percentage inhibition, Mean: 99%
HIV-1/Ba-L; Day 14
  ED70: 1.04 µM
  ED90: 1.45 µM
HIV-1/Ba-L; Day 14, dose 62.5 (nM)
  Percentage inhibition, Mean: 0%
HIV-1/Ba-L; Day 14, dose 125 (nM)
  Percentage inhibition, Mean: 0%
HIV-1/Ba-L; Day 14, dose 250 (nM)
  Percentage inhibition, Mean: 0%
HIV-1/Ba-L; Day 14, dose 500 (nM)
  Percentage inhibition, Mean: 66%
HIV-1/Ba-L; Day 14, dose 1000 (nM)
  Percentage inhibition, Mean: 70%
HIV-1/Ba-L; Day 14, dose 2000 (nM)
  Percentage inhibition, Mean: 92%
HIV-1/Ba-L; Day 21
  ED70: >2 µM
  ED90: >2 µM
HIV-1/Ba-L; Day 21, dose 62.5 (nM)
  Percentage inhibition, Mean: 0%
HIV-1/Ba-L; Day 21, dose 125 (nM)
  Percentage inhibition, Mean: 0%
HIV-1/Ba-L; Day 21, dose 250 (nM)
  Percentage inhibition, Mean: 0%
HIV-1/Ba-L; Day 21, dose 500 (nM)
  Percentage inhibition, Mean: 28%
HIV-1/Ba-L; Day 21, dose 1000 (nM)
  Percentage inhibition, Mean: 50%
HIV-1/Ba-L; Day 21, dose 2000 (nM)
  Percentage inhibition, Mean: 60%
Rev
  inhibition of the function of Rev (CAT from pDM128): effective inhibitors of the function of Rev
